Laboratory results reported in the supplement of paper PMC10307832.

Key:
Experiment in all cases: relative viability (nuclei count vs DMSO), 5 days (fraction); higher = more cells survive
[1] = compound: C=CCNC1=C2C[C@@H](C)C[C@H](OC)[C@H](O)[C@@H](C)/C=C(\C)[C@H](OC(N)=O)[C@@H](OC)/C=C\C=C(/C)C(=O)NC(=CC1=O)C2=O [17-AAG] + Cc1cc(Nc2cc(N3CCN(C)CC3)nc(Sc3ccc(NC(=O)C4CC4)cc3)n2)n[nH]1 [Tozasertib] (partner 0.1 µM)
Summary of the method: (§1)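 Relative viability is defined as nuclei in treated wells over nuclei in vehicle wells. Duplicate plates were run and medians reported. Lung cancer cell lines in 1536-well plates were dosed by pin tool one day after seeding, with one drug or with a fixed anchor-drug dose plus five library-drug doses (not always all listed) in √10 steps, and nuclei were counted after 5 days.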

[2] = compound: C=CCNC1=C2C[C@@H](C)C[C@H](OC)[C@H](O)[C@@H](C)/C=C(\C)[C@H](OC(N)=O)[C@@H](OC)/C=C\C=C(/C)C(=O)NC(=CC1=O)C2=O [17-AAG] + CCNC(=O)c1noc(-c2cc(C(C)C)c(O)cc2O)c1-c1ccc(CN2CCOCC2)cc1 [Luminespib] (partner 0.01 µM)
Summary of the method: as §1

[3] = compound: C=CCNC1=C2C[C@@H](C)C[C@H](OC)[C@H](O)[C@@H](C)/C=C(\C)[C@H](OC(N)=O)[C@@H](OC)/C=C\C=C(/C)C(=O)NC(=CC1=O)C2=O [17-AAG] + Cc1nc(Nc2ncc(C(=O)Nc3c(C)cccc3Cl)s2)cc(N2CCN(CCO)CC2)n1 [Dasatinib] (partner 0.075 µM)
Summary of the method: as §1

[4] = compound: C=CCNC1=C2C[C@@H](C)C[C@H](OC)[C@H](O)[C@@H](C)/C=C(\C)[C@H](OC(N)=O)[C@@H](OC)/C=C\C=C(/C)C(=O)NC(=CC1=O)C2=O [17-AAG] + Cc1nc(NC(=O)N2CCC[C@H]2C(N)=O)sc1-c1ccnc(C(C)(C)C(F)(F)F)c1 [Alpelisib] (partner 2 µM)
Summary of the method: as §1

Row | Cell Line | relative viability ([1]; first compound 0.00128 µM) | relative viability ([1]; first compound 0.004048 µM) | relative viability ([1]; first compound 0.0128 µM) | relative viability ([1]; first compound 0.04048 µM) | relative viability ([1]; first compound 0.128 µM) | relative viability ([2]; first compound 0.00128 µM) | relative viability ([2]; first compound 0.004048 µM) | relative viability ([2]; first compound 0.0128 µM) | relative viability ([2]; first compound 0.04048 µM) | relative viability ([2]; first compound 0.128 µM) | relative viability ([3]; first compound 0.00128 µM) | relative viability ([3]; first compound 0.004048 µM) | relative viability ([3]; first compound 0.0128 µM) | relative viability ([3]; first compound 0.04048 µM) | relative viability ([3]; first compound 0.128 µM) | relative viability ([4]; first compound 0.00128 µM) | relative viability ([4]; first compound 0.004048 µM) | relative viability ([4]; first compound 0.0128 µM) | relative viability ([4]; first compound 0.04048 µM) | relative viability ([4]; first compound 0.128 µM)
1 | 201T | 0.988 | 0.915 | 0.872 | 0.891 | 0.388 | 1.06 | 1.03 | 0.96 | 0.913 | 0.431 | 0.551 | 0.618 | 0.438 | 0.352 | 0.262 | 1.07 | 1.03 | 0.984 | 0.943 | 0.818
2 | A-427 | 0.21 | 0.221 | 0.238 | 0.257 | 0.186 | 0.994 | 0.902 | 0.66 | 0.379 | 0.183 | 0.698 | 0.709 | 0.692 | 0.538 | 0.156 | 1.05 | 1.15 | 1.12 | 1.1 | 0.995
3 | ABC-1 | 0.163 | 0.2 | 0.185 | 0.207 | 0.175 | 0.439 | 0.758 | 0.565 | 0.38 | 0.238 | 0.607 | 0.666 | 0.633 | 0.514 | 0.392 | 1.05 | 1.19 | 0.691 | 0.976 | 0.919
4 | BEN | 0.529 | 0.625 | 0.473 | 0.738 | 0.472 | 0.33 | 0.408 | 0.206 | 0.241 | 0.194 | 0.354 | 0.376 | 0.469 | 0.298 | 0.232 | 1.02 | 0.978 | 1.04 | 0.84 | 0.257
5 | CAL-12T | 0.328 | 0.24 | 0.375 | 0.314 | 0.153 | 0.33 | 0.331 | 0.175 | 0.14 | 0.113 | 0.475 | 0.396 | 0.456 | 0.326 | 0.0959 | 1.43 | 1.09 | 0.993 | 0.706 | 0.658
6 | COR-L23 | 0.2 | 0.25 | 0.225 | 0.158 | 0.0795 | 0.648 | 0.504 | 0.46 | 0.11 | 0.0893 | 0.58 | 0.451 | 0.504 | 0.313 | 0.0763 | 0.715 | 0.826 | 0.941 | 0.376 | 0.0924
7 | COR-L 105 | 0.458 | 0.356 | 0.384 | 0.713 | 0.418 | 0.858 | 0.708 | 0.671 | 0.432 | 0.224 | 0.388 | 0.306 | 0.356 | 0.202 | 0.263 | 1.08 | 0.898 | 1.19 | 0.746 | 0.817
8 | Calu-6 |  |  |  |  |  |  |  |  |  |  |  |  |  |  |  | 0.959 | 0.928 | 0.915 | 0.363 | 0.188
9 | ChaGo-K-1 | 0.215 | 0.249 | 0.279 | 0.217 | 0.205 | 0.577 | 0.627 | 0.442 | 0.199 | 0.181 | 0.507 | 0.636 | 0.464 | 0.335 | 0.186 |  |  |  |  | 
10 | EKVX | 0.448 | 0.377 | 0.398 | 0.238 | 0.0984 | 0.879 | 0.857 | 0.742 | 0.187 | 0.13 | 0.414 | 0.542 | 0.472 | 0.343 | 0.229 | 0.878 | 0.944 | 0.875 | 0.208 | 0.163
11 | EMC-BAC-2 | 0.286 | 0.297 | 0.347 | 0.26 | 0.226 | 1.14 | 1.06 | 0.565 | 0.268 | 0.248 | 0.365 | 0.411 | 0.28 | 0.258 | 0.169 | 0.836 | 0.761 | 0.754 | 0.813 | 0.381
12 | EPLC-272H | 0.331 | 0.329 | 0.482 | 0.379 | 0.143 | 0.191 | 0.231 | 0.201 | 0.173 | 0.0978 | 0.436 | 0.387 | 0.205 | 0.0643 | 0.0761 | 1.01 | 0.934 | 0.848 | 0.756 | 0.266
13 | H3255 | 0.957 | 0.496 | 0.612 | 0.234 | 0.228 | 0.716 | 0.872 | 0.536 | 0.203 | 0.208 | 0.427 | 0.345 | 0.374 | 0.204 | 0.207 | 0.672 | 0.716 | 0.498 | 0.26 | 0.154
14 | HARA | 0.0961 | 0.125 | 0.135 | 0.148 | 0.132 | 0.831 | 0.544 | 0.757 | 0.525 | 0.207 | 0.234 | 0.278 | 0.261 | 0.284 | 0.141 | 0.887 | 0.967 | 0.736 | 0.828 | 0.378
15 | HCC-15 | 0.429 | 0.453 | 0.365 | 0.124 | 0.0778 | 0.301 | 0.23 | 0.131 | 0.128 | 0.102 | 0.617 | 0.434 | 0.0928 | 0.0907 | 0.0837 | 0.948 | 0.772 | 0.587 | 0.403 | 0.16
16 | HCC-44 | 0.898 | 0.753 | 0.293 | 0.19 | 0.135 | 0.758 | 0.663 | 0.228 | 0.217 | 0.172 |  |  |  |  |  | 0.792 | 0.742 | 0.656 | 0.449 | 0.138
